The target of data set [1] is Voltage-dependent N-type calcium channel subunit alpha-1B (Homo sapiens, UniProt Q00975). Nature of the data set: Inhibition of Cav2.2 in human SH-SY5Y cells assessed as decrease in KCl-induced calcium mobilization measured after 600 secs post compound addition and 300 secs post KCl addition in presence of CaV1 blocker nifedipine by calcium 4 dye-based FLIPR assay. It is filed as cell-based.

The target of data set [2] is Voltage-dependent T-type calcium channel subunit alpha-1H (Homo sapiens, UniProt O95180). Nature of the data set: Inhibition of recombinant human Cav3.2-alpha1 expressed in HEK293T cells assessed as decrease in KCl-induced calcium mobilization measured after 600 secs post compound addition and 300 secs post KCl addition by calcium 4 dye-based FLIPR assay. It is filed as cell-based. (Calcium assays in cells follow changes in intracellular calcium, usually with a dye or a luminescent sensor.)
Chain of Voltage-dependent T-type calcium channel subunit alpha-1H (O95180 whole entry): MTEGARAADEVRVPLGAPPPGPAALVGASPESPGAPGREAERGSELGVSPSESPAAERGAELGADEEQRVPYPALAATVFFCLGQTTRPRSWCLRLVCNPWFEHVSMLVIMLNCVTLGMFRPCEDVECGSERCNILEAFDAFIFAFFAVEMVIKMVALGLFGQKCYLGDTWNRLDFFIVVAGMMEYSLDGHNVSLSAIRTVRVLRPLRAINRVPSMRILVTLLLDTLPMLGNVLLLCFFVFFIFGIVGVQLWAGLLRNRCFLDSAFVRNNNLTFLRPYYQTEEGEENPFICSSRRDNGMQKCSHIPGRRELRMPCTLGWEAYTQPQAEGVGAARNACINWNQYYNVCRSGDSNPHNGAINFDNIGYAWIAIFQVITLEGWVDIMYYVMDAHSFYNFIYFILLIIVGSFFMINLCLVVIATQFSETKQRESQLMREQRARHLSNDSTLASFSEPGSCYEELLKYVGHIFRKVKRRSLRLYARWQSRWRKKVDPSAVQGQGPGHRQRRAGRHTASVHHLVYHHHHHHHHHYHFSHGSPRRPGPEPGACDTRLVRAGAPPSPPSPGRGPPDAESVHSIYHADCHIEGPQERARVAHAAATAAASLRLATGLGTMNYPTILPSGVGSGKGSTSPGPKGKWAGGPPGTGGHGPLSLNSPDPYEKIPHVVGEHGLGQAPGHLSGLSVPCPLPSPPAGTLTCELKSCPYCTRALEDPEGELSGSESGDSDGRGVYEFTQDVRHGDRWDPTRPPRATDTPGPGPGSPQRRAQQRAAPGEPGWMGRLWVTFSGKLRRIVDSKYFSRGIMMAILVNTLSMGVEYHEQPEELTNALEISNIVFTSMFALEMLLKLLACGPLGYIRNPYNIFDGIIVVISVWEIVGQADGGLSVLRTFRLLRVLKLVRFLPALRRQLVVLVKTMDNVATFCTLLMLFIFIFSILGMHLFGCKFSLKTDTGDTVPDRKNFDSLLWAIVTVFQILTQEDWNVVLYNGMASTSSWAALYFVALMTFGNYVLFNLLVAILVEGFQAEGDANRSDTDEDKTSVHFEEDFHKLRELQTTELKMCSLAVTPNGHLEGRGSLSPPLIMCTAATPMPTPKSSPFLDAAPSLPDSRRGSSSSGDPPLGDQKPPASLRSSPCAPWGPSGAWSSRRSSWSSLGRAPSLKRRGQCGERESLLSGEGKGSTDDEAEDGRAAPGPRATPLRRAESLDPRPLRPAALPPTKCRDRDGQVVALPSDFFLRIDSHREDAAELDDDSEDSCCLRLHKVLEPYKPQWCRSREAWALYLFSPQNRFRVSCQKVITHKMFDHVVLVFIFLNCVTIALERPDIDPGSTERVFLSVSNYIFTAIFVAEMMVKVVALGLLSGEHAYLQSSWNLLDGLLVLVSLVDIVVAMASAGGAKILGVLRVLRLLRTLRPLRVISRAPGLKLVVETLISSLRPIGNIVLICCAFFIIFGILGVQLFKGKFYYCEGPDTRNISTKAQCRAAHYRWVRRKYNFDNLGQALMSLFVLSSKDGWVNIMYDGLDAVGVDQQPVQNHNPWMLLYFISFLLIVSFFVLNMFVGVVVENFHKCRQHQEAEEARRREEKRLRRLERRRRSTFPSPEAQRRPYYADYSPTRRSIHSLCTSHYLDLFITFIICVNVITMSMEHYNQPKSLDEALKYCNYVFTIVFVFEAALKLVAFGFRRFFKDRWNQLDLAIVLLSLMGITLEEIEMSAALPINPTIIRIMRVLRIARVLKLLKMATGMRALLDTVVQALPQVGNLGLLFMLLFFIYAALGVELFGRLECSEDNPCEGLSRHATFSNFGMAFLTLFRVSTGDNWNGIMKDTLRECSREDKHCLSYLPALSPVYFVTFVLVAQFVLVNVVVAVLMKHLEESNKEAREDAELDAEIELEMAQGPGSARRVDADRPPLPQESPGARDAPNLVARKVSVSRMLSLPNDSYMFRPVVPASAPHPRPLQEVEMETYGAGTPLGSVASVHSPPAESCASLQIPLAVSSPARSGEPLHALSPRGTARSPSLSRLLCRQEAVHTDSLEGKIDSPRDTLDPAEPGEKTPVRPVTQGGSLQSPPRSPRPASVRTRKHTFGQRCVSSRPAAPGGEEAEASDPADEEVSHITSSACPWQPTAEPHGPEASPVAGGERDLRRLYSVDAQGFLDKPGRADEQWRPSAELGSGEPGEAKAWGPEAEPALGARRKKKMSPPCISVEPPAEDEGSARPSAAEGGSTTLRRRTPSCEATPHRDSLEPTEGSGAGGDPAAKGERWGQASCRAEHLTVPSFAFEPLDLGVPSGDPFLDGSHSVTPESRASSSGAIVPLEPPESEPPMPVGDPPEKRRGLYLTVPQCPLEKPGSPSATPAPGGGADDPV

Data set [3] in a line: Metabolic stability in rat plasma assessed as parent compound remaining at 120 uM after 24 hrs by HPLC analysis relative to control. The data set is classed as ADME, cell-free. As to conditions: read-out: Stability.
Data set [4] in a line: Half life in rat plasma. It is filed as ADME, cell-free.
The target of data set [5] is Voltage-dependent N-type calcium channel subunit alpha-1B (Rattus norvegicus, UniProt Q02294). In words: Displacement of [125I]GVIA from rat brain membrane Cav2.2 after 1 hr by gamma counting method.

pEC50, pIC50: −log10 of the molar value.

One may read the pIC50 as −log10 of the IC50, conventionally taken in molar units. One may read the half-life as the time needed for the level to fall by half in the phase considered. As usually defined, the pEC50 is the negative decadic logarithm of the EC50, by convention in mol/L.

Chain of Voltage-dependent N-type calcium channel subunit alpha-1B (Homo sapiens, UniProt Q00975) (Q00975 whole entry): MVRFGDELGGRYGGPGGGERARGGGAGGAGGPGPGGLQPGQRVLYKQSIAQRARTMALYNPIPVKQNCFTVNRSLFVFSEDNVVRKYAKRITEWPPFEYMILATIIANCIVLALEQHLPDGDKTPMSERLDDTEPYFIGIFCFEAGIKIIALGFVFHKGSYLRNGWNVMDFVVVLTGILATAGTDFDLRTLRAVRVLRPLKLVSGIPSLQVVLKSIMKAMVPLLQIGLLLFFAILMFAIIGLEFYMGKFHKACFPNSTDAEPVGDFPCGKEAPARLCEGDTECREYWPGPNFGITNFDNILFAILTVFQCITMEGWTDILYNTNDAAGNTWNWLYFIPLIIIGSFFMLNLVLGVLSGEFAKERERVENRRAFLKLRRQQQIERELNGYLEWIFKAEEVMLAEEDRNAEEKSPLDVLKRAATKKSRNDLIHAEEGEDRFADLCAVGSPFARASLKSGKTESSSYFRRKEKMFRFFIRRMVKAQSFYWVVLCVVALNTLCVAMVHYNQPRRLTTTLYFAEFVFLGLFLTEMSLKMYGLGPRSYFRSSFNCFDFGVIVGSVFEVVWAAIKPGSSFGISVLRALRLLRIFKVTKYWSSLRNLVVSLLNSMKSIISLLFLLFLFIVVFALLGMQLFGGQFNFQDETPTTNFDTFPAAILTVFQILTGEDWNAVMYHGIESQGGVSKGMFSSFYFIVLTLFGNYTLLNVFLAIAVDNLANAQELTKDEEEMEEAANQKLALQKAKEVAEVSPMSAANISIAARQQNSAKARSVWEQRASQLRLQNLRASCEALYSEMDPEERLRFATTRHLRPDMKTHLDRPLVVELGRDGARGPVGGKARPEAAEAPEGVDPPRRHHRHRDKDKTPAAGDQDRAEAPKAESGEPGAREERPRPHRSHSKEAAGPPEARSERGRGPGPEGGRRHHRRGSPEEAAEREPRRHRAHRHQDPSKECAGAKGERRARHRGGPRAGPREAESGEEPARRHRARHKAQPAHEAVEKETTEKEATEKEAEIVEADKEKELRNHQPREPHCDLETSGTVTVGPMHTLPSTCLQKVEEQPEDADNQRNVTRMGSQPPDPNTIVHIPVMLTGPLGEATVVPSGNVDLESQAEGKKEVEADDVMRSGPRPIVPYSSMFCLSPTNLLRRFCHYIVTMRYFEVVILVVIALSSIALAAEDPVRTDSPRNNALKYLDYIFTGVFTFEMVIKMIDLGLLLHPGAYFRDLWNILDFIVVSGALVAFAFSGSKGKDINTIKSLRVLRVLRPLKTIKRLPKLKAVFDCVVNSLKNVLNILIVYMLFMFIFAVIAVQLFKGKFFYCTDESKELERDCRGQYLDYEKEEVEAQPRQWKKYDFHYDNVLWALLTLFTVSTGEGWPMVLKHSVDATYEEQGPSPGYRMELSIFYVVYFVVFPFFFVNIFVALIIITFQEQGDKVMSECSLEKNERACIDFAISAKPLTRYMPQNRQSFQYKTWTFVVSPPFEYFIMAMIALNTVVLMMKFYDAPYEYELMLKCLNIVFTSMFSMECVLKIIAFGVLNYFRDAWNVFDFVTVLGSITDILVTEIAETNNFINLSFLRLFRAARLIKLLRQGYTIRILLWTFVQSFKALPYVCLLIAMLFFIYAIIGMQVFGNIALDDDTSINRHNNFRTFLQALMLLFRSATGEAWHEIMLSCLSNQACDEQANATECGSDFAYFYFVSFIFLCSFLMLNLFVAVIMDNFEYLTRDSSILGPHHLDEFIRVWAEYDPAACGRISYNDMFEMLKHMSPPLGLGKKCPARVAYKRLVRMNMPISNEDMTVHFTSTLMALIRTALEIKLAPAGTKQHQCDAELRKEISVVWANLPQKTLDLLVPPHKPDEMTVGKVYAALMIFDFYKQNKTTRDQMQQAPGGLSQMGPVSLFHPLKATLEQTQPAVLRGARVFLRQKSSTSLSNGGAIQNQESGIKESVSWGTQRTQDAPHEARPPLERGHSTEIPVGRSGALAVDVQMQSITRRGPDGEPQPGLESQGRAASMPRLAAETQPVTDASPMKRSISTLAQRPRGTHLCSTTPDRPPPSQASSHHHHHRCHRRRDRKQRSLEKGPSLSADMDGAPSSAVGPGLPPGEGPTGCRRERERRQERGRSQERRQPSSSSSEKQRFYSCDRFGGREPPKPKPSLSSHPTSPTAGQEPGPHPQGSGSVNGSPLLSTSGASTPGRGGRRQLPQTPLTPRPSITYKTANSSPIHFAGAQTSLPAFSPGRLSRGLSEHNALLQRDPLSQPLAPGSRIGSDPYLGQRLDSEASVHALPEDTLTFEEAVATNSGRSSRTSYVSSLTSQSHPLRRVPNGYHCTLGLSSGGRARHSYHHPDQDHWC

On to `NCCCOc1ccc(CNc2nc3ccc(Oc4cccc(C(F)(F)F)c4)cc3s2)cc1`, for which the pIC50 was 3.84 in data set [1] and 3.77 in data set [2].
Take `CN(Cc1ccc(OCCCN)cc1)c1nc2ccc(Oc3ccc(O)cc3)cc2s1`: the pIC50 in data set [1] was 3.93; in data set [2] it was 3.78.
On to `NCCCOc1ccc(CNc2nc3ccc(Oc4ccc(O)cc4)cc3s2)cc1`, for which the pIC50 in data set [1] was 3.69; in data set [2], 3.52.
For `CN(Cc1ccc(OCCCNC(=N)N)cc1)c1nc2ccc(Oc3cccc(C(F)(F)F)c3)cc2s1.O=C(O)C(F)(F)F`, the figures for the pIC50 in data set [1] and in data set [2] were 3.69 and 3.11, respectively. In addition, the remaining at 24 h, 120 µM in data set [3] amounted to 95%. The same molecule yielded a half-life in data set [4] of over 24 h.
`N=C(N)NCCCOc1ccc(CNc2nc3ccc(Oc4ccc(O)cc4)cc3s2)cc1`: the figures for the negative logarithm of the IC50 (pIC50) in data set [1] and in data set [2] were 3.60 and 3.50, respectively.
Turning to `CN(Cc1ccc(OCCCNC(=N)N)cc1)c1nc2ccc(Oc3ccc(F)cc3)cc2s1`, the pIC50 was 4.00 in data set [1] and 3.28 in data set [2].
For `N=C(N)NCCCOc1ccc(CNc2nc3ccc(Oc4ccc(C(F)(F)F)cc4)cc3s2)cc1.O=C(O)C(F)(F)F`, the pIC50 in data set [1] was 3.78; in data set [2], 3.71. Also, in data set [3], the remaining at 24 h, 120 µM is 91%. For the same molecule, the half-life in data set [4] is over 24 h.
In the case of `N=C(N)NCCCOc1ccc(CNc2nc3ccc(Oc4cccc(C(F)(F)F)c4)cc3s2)cc1`, the pIC50 in data set [1] was 3.89; in data set [2], 3.57.
The like results for `CN(Cc1ccc(OCCCNC(=N)N)cc1)c1nc2ccc(Oc3ccccc3)cc2s1` were, in that order, 3.95 and 3.30.
The corresponding values for `CN(Cc1ccc(OCCCN)cc1)c1nc2ccc(Oc3ccccc3)cc2s1` are 4.31 and 4.02.
With `CN(Cc1ccc(OCCCN)cc1)c1nc2ccc(Oc3cccc(C(F)(F)F)c3)cc2s1.O=C(O)C(F)(F)F`, the pIC50 in data set [1] is 4.11; in data set [2] it was 3.62. Besides, the remaining at 24 h, 120 µM in data set [3] was 100%. For the same molecule, the half-life in data set [4] was over 24 h.
Consider `NC(N)=NCCCOc1ccc(CNc2nc3ccc(Oc4ccccc4)cc3s2)cc1`, for which the pIC50 in data set [1] is 3.99; in data set [2], 3.78.
As for `CN(Cc1ccc(OCCCNC(=N)N)cc1)c1nc2ccc(Oc3ccc(C#N)cc3)cc2s1`, the pIC50 in data set [1] was 3.84; in data set [2] it was 3.82.
The like results for `CN(Cc1ccc(OCCCN)cc1)c1nc2ccc(Oc3ccc(C(F)(F)F)cc3)cc2s1` were, in that order, 3.55 and 3.61.
The corresponding values for `CN(Cc1ccc(OCCCNC(=N)N)cc1)c1nc2ccc(Oc3ccc(C(F)(F)F)cc3)cc2s1` are 3.73 and 3.67.
The corresponding values for `N=C(N)NCCCOc1ccc(CNc2nc3ccc(Oc4ccc(F)cc4)cc3s2)cc1` are 3.61 and 3.54.
Take `CN(Cc1ccc(OCCCNC(=N)N)cc1)c1nc2ccc(Oc3ccc(O)cc3)cc2s1`: the figures for the pIC50 in data set [1] and in data set [2] were 3.36 and 3.48, respectively.
The like results for `CN(Cc1ccc(OCCCN)cc1)c1nc2ccc(Oc3ccc(C#N)cc3)cc2s1` were, in that order, 4.19 and 3.48.
The corresponding values for `CN(C)CCCOc1ccc(CN(C)c2nc3ccc(Oc4ccc(C(F)(F)F)cc4)cc3s2)cc1` are 4.34 and 4.27.
The like results for `CN(C)CCCOc1ccc(CNc2nc3ccc(Oc4ccc(F)cc4)cc3s2)cc1` were, in that order, 4.40 and under 3.00.
For `CN(C)CCCOc1ccc(CNc2nc3ccc(Oc4ccc(C#N)cc4)cc3s2)cc1`, the pIC50 in data set [1] is 3.98; in data set [2], 4.39.
As for `CN(Cc1ccc(OCCCN)cc1)c1nc2ccc(Oc3ccc(F)cc3)cc2s1`, the negative-log IC50 (pIC50) in data set [1] is 4.01; in data set [2], 3.31.
The corresponding values for `CN(C)CCCOc1ccc(CN(C)c2nc3ccc(Oc4ccc(C#N)cc4)cc3s2)cc1` are 4.16 and 4.19.
Turning to `CC(C)[C@H]1c2ccc(F)cc2CC[C@@]1(CCN(C)CCCc1nc2ccccc2[nH]1)OC(=O)C1CC1`, the negative-log IC50 (pIC50) in data set [1] was 5.15.
As to `CN(C)CCCOc1ccc(CNc2nc3ccc(Oc4cccc(C(F)(F)F)c4)cc3s2)cc1`, the results for the pIC50 in data set [1] and in data set [2] were 4.29 and 3.96, respectively.
The like results for `NCCCOc1ccc(CNc2nc3ccc(Oc4ccc(C(F)(F)F)cc4)cc3s2)cc1` were, in that order, 4.23 and 3.95.
With `NCCCOc1ccc(CNc2nc3ccc(Oc4ccc(F)cc4)cc3s2)cc1.O=C(O)C(F)(F)F`, the pIC50 in data set [1] is 3.97; in data set [2] it was 3.16. The remaining at 24 h, 120 µM in data set [3] amounted to 75%. This molecule also returned a half-life in data set [4] of over 24 h.
On to `NCCCOc1ccc(CNc2nc3ccc(Oc4ccccc4)cc3s2)cc1`, for which the pIC50 in data set [1] was 3.66; in data set [2] it was under 3.00.
The like results for `N#Cc1ccc(Oc2ccc3nc(NCc4ccc(OCCCNC(=N)N)cc4)sc3c2)cc1` were, in that order, 3.43 and 3.49.
The corresponding values for `N#Cc1ccc(Oc2ccc3nc(NCc4ccc(OCCCN)cc4)sc3c2)cc1` are 4.39 and 3.96.
As for `NCCCOc1ccccc1C(=O)N(Cc1ccc(OCCCN=C(N)N)cc1)c1nc2ccc(Oc3ccc(O)cc3)cc2s1`, the pEC50 in data set [5] was 5.24.
Same read-out and setting: next, `NCCCOc1ccc(CN(C(=O)c2ccccc2OCCCN)c2nc3ccc(Oc4ccc(O)cc4)cc3s2)cc1`: 5.27.
As to `O=C(CC(c1ccccc1)c1ccccc1)N1CCN(C(c2ccccc2)c2ccccc2)CC1` [Z160], the pIC50 in data set [1] is 4.41; in data set [2], 4.35.

The values above are taken from ChEMBL document CHEMBL4219199, “Synthesis and evaluation of aminobenzothiazoles as blockers of N- and T-type calcium channels” (Bioorg Med Chem, 2018).
